Experimental data taken from US11548900B2, “Oxazino-quinazoline and oxazino-quinoline type compound, preparation method and uses thereof” (BEIJING SCITECH-MQ PHARMACEUTICALS LIMITED, priority 2018, dated 2023).

Key:
BT474 cells = assay: Inhibition of cell proliferation, BT474 (CCK-8, 72 h); assay type: cell-based; conditions: Homo sapiens, BT-474, 72 h incubation
Procedure, shortened: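 BT474 and HCC827 seeded at 10,000 and 3000 cells/well respectively, cultured overnight, then exposed to 10-point 3-fold compound dilutions (top stock 10 mM; 0.25% DMSO final) for 72 h. Viability by CCK-8, OD450; survival normalised to untreated and cell-free blanks, IC50 from curve fit.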

HCC827 cells = assay: Inhibition of cell proliferation, HCC827 (CCK-8, 72 h); assay type: cell-based; conditions: Homo sapiens, 72 h incubation
Procedure: The assay for the inhibition of cell proliferation by small molecular compounds was carried out using the method as follows:
1. 600 μL pancreatin was added to a T75 cell culture flask, which was digested in a 37° C. incubator for about 1 min before 5 mL of DMEM complete culture solution was added, blew evenly, transferred to a 15 mL centrifuge tube, and centrifuged at 1000 rpm for 4 min;
2. The supernatant was removed and 5 mL DMEM complete culture solution was added, blew evenly, and 10 μL cell suspension was taken and mixed with 10 μL 0.4% Trypan Blue, and counted using a cell counter;
3. BT474 and HCC827 cell lines were seeded in 96-well plates at a cell density of 10,000 and 3000 cells/well/80 μL, respectively, and cultured overnight. Only sterile water was added to the 36 wells on the periphery of the 96-well plate without adding cells, and only the 60 wells in the center of the 96-well plate were used for cell assays and controls;
4. Dilution of compounds: the compounds were diluted with a 3-fold dilution to make 10 concentrations in total with an initial concentration of 10 mM;
5. 20 μL of different compounds with different concentrations were added to each well, and 20 μL of complete culture solution was added to the remaining wells. The final concentration of DMSO in each well is 0.25%;
6. After 72 h of incubation, 10 μL CCK-8 reagent was added to each well, and incubated at 37° C. for 1-2 h; and the OD value was read at 450 nm;
7. Cell survival rate (%)=[(As−Ab)/(Ac−Ab)]*100%
As: Assay well (medium containing cell, CCK-8, compound)
Ac: Control well (medium containing cell, CCK-8)
Ab: Blank well (CCK-8, medium without cell and compound)
8. The value was imported into Graphpad Prism5 software for the calculation of IC50s (compound concentration at which 50% maximum survival rate is observed).

EGFR kinase = EGFR kinase (Homo sapiens (Human), UniProt P00533); assay: Inhibition of EGFR kinase activity (ULight-labeled JAK-1 (Tyr1023) peptide substrate); assay type: biochemical; conditions: EGFR kinase 0.35 nM, ATP 150 μM, 2 hours
Chain of EGFR kinase (P00533 25-1210): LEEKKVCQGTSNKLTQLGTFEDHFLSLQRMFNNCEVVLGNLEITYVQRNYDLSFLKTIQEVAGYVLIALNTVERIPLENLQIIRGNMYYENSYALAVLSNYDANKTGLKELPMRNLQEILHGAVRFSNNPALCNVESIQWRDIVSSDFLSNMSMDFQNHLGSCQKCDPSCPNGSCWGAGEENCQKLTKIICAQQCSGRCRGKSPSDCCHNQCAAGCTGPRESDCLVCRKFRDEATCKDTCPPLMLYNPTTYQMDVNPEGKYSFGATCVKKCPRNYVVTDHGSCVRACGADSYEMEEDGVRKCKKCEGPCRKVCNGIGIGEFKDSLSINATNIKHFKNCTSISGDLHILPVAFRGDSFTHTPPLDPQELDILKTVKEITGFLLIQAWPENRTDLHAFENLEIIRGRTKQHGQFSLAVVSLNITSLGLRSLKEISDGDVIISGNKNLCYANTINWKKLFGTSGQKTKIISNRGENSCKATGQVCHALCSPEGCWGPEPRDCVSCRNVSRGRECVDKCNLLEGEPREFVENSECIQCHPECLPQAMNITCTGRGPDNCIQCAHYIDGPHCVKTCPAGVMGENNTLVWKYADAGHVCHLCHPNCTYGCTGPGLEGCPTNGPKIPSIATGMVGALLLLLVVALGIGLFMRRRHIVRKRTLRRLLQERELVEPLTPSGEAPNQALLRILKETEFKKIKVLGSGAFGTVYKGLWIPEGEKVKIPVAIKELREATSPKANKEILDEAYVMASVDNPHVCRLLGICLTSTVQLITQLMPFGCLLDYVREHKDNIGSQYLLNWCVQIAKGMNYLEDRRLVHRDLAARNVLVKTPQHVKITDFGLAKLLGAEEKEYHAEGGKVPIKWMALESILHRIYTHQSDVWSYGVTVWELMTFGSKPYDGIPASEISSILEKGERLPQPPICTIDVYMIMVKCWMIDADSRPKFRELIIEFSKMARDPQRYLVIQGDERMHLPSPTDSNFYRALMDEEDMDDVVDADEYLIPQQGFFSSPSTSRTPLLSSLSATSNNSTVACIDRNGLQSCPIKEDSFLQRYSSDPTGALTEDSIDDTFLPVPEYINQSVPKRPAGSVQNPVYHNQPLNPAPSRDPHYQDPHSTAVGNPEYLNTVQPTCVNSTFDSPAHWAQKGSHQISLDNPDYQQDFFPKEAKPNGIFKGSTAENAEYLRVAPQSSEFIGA
Procedure, shortened: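 TR-FRET kinase assay: 0.35 nM EGFR, 150 μM ATP, 100 nM substrate, 2 h at room temperature in the dark after 5 min enzyme-compound preincubation, 1% DMSO. Compounds tested as 11-point 3-fold series, 2.5 μM to 0.042 nM final, duplicate; IC50 from 665/615 nm ratio-based inhibition.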

HER2 kinase = HER2 kinase (Homo sapiens (Human), UniProt P04626); assay: Inhibition of HER2 kinase activity (ULight-labeled PolyGT substrate); assay type: biochemical; conditions: HER2 kinase 10 nM, ATP 10 μM, 2 hours
Chain of HER2 kinase (P04626 23-1255): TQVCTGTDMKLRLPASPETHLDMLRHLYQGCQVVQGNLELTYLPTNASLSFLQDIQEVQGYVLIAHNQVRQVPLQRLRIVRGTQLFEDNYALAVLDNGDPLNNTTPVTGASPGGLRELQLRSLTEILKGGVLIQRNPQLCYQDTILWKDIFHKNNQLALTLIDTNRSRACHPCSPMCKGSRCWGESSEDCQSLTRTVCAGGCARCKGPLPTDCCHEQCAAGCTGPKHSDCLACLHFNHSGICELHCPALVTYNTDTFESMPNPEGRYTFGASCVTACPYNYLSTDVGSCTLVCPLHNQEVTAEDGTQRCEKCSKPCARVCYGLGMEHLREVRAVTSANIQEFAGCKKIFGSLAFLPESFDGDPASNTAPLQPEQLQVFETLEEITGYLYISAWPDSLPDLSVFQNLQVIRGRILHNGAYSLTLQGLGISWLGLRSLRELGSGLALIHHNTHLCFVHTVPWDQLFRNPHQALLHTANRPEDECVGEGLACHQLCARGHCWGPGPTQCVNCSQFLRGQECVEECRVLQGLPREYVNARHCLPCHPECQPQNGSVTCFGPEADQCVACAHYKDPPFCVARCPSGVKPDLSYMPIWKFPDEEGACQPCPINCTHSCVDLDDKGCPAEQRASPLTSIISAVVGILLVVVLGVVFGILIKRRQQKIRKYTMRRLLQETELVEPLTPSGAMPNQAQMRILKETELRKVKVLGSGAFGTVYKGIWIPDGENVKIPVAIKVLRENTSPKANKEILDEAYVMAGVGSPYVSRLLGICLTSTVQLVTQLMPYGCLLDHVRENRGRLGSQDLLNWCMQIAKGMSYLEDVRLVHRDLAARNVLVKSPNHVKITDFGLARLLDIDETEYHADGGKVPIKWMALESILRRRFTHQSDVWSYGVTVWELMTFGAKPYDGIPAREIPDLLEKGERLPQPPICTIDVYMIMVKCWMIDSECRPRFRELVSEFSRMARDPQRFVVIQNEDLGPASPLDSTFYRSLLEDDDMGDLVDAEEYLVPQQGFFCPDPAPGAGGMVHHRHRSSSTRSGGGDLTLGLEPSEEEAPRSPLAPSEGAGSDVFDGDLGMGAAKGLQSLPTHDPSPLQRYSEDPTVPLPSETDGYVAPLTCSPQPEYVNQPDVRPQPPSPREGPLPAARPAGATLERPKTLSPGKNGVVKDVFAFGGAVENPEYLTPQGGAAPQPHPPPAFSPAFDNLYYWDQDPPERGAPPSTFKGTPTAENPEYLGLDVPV
Procedure, shortened: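 Eleven-point 3-fold dilutions (0.042 nM–2.5 μM final, 1% DMSO) tested in duplicate against 10 nM HER2 with 100 nM ULight-labelled PolyGT and 10 μM ATP. Reaction ran 2 h at RT after 5 min pre-incubation; 665/615 nm TR-FRET ratio used to derive inhibition and IC50.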

SMILES	IC50 (BT474 cells)	IC50 (HCC827 cells)	IC50 (EGFR kinase)	IC50 (HER2 kinase)
CN(C)C/C=C/C(=O)N1CCOc2c1ccc1ncnc(Nc3ccc(OCc4cccnc4)cc3)c21 [Example 76, (E)-4-(dimethylamino)-1-(10-((4-(pyridin-3-ylmethoxy)phenyl)amino)-2,3-dihydro-4H-[1,4]oxazino[2,3-f]quinazolin-4-yl)but-2-en-1-one]	≤ 50 nM	50 to 500 nM	500 to 5000 nM	≤ 50 nM
COc1cccc(Oc2ccc(Nc3ncnc4ccc5c(c34)OCCN5C(=O)/C=C/CN(C)C)cc2)c1 [Example 56, (E)-4-(dimethylamino)-1-(10-((4-(3-methoxyphenoxy)phenyl)amino)-2,3-dihydro-4H-[1,4]oxazino[2,3-f]quinazolin-4-yl)but-2-en-1-one]	≤ 50 nM	500 to 5000 nM	≤ 50 nM	≤ 50 nM
CN(C)C/C=C/C(=O)N1CCOc2c1ccc1ncnc(Nc3ccc(OCc4cccc(F)c4)cc3)c21 [Example 61, (E)-4-(dimethylamino)-1-(10-((4-((3-fluorobenzyl)oxy)phenyl)amino)-2,3-dihydro-4H-[1,4]oxazino[2,3-f]quinazolin-4-yl)but-2-en-1-one]	≤ 50 nM	> 5000 nM	≤ 50 nM	≤ 50 nM
Cc1cccc(Oc2ccc(Nc3ncnc4ccc5c(c34)OCCN5C(=O)/C=C/CN(C)C)cc2)c1 [Example 47, (E)-4-(dimethylamino)-1-(10-((4-(m-tolyloxy)phenyl)amino)-2,3-dihydro-4H-[1,4]oxazino[2,3-f]quinazolin-4-yl)but-2-en-1-one]	≤ 50 nM	500 to 5000 nM	≤ 50 nM	≤ 50 nM
COc1cc(Nc2ncnc3ccc4c(c23)OCCN4C(=O)/C=C/CN(C)C)ccc1OCc1cccc(F)c1 [Example 68, (E)-4-(dimethylamino)-1-(10-((4-((3-fluorobenzyl)oxy)-3-methoxyphenyl)amino)-2,3-dihydro-4H-[1,4]oxazino[2,3-f]quinazolin-4-yl)but-2-en-1-one]	≤ 50 nM	500 to 5000 nM	≤ 50 nM	≤ 50 nM
CN1CCN(C/C=C/C(=O)N2CCOc3c2ccc2ncnc(Nc4ccc(Oc5ccccc5)cc4)c32)CC1 [Example 95, (E)-4-(4-methylpiperazin-1-yl)-1-(10-((4-phenoxyphenyl)amino)-2,3-dihydro-4H-[1,4]oxazino[2,3-f]quinazolin-4-yl)but-2-en-1-one]	≤ 50 nM	50 to 500 nM	≤ 50 nM	≤ 50 nM
CN(C)C/C=C/C(=O)N1CCOc2c1ccc1ncnc(Nc3ccc(OCc4ccc(Cl)cc4)cc3)c21 [Example 87, (E)-4-(dimethylamino)-1-(10-((4-((4-chlorobenzyl)oxy)phenyl)amino)-2,3-dihydro-4H-[1,4]oxazino[2,3-f]quinazolin-4-yl)but-2-en-1-one]	50 to 500 nM	500 to 5000 nM		≤ 50 nM
CN(C)C/C=C/C(=O)N1CCOc2c1ccc1ncnc(Nc3ccc(OCc4ccccc4)cc3)c21 [Example 78, (E)-1-(10-((4-(benzyloxy)phenyl)amino)-2,3-dihydro-4H-[1,4]oxazino[2,3-f]quinazolin-4-yl)-4-(dimethylamino)but-2-en-1-one]	≤ 50 nM	500 to 5000 nM		≤ 50 nM
Cc1ccccc1COc1ccc(Nc2ncnc3ccc4c(c23)OCCN4C(=O)/C=C/CN(C)C)cc1 [Example 81, (E)-4-(dimethylamino)-1-(10-((4-((2-methylbenzyl)oxy)phenyl)amino)-2,3-dihydro-4H-[1,4]oxazino[2,3-f]quinazolin-4-yl)but-2-en-1-one]	≤ 50 nM	500 to 5000 nM		≤ 50 nM
CC#CC(=O)N1CCOc2c1ccc1ncnc(Nc3ccc(OCc4ccccn4)c(Cl)c3)c21 [Example 113, 1-(10-((3-chloro-4-(pyridin-2-ylmethoxy)phenyl)amino)-2,3-dihydro-4H-[1,4]oxazino[2,3-f]quinazolin-4-yl)but-2-yne-1-one]	50 to 500 nM	500 to 5000 nM		≤ 50 nM
CN(C)C/C=C/C(=O)N1CCOc2c1ccc1ncnc(Nc3ccc(Oc4ccccc4)c(F)c3)c21 [Example 58, (E)-4-(dimethylamino)-1-(10-((3-fluoro-4-phenoxyphenyl)amino)-2,3-dihydro-4H-[1,4]oxazino[2,3-f]quinazolin-4-yl)but-2-en-1-one]	≤ 50 nM	50 to 500 nM		≤ 50 nM
CN(C)C/C=C/C(=O)N1CCOc2c1ccc1ncnc(Nc3ccc(OCc4ccccc4Cl)cc3)c21 [Example 80, (E)-4-(dimethylamino)-1-(10-((4-((2-chlorobenzyl)oxy)phenyl)amino)-2,3-dihydro-4H-[1,4]oxazino[2,3-f]quinazolin-4-yl)but-2-en-1-one]	≤ 50 nM	500 to 5000 nM		≤ 50 nM
CN(C)C/C=C/C(=O)N1CCOc2c1ccc1ncnc(Nc3ccc(OCc4cc(F)ccc4F)cc3)c21 [Example 89, (E)-1-(10-((4-((2,5-difluorobenzyl)oxy)phenyl)amino)-2,3-dihydro-4H-[1,4]oxazino[2,3-f]quinazolin-4-yl)-4-(dimethylamino)but-2-en-1-one]	≤ 50 nM	500 to 5000 nM		≤ 50 nM

Further lines, results first:

IC50 (BT474 cells)	IC50 (HCC827 cells)	IC50 (EGFR kinase)	IC50 (HER2 kinase)	SMILES
≤ 50 nM	500 to 5000 nM	50 to 500 nM	≤ 50 nM	CN(C)C/C=C/C(=O)N1CCOc2c1ccc1ncnc(Nc3ccc(Oc4nccs4)cc3)c21 [Example 57, (E)-4-(dimethylamino)-1-(10-((4-(thiazol-2-yloxy)phenyl)amino)-2,3-dihydro-4H-[1,4]oxazino[2,3-f]quinazolin-4-yl)but-2-en-1-one]
≤ 50 nM	50 to 500 nM		≤ 50 nM	CN(C/C=C/C(=O)N1CCOc2c1ccc1ncnc(Nc3ccc(OCc4ccccn4)c(Cl)c3)c21)C1CC1 [Example 100, (E)-1-(10-((3-chloro-4-(pyridin-2-ylmethoxy)phenyl)amino)-2,3-dihydro-4H-[1,4]oxazino[2,3-f]quinazolin-4-yl)-4-(cyclopropyl(methyl)amino)but-2-en-1-one]
≤ 50 nM	500 to 5000 nM		≤ 50 nM	CN(C)C/C=C/C(=O)N1CCOc2c1ccc1ncnc(Nc3ccc(OCc4cccc(C#N)c4)cc3)c21 [Example 85, (E)-4-(dimethylamino)-1-(10-((4-((3-cyanobenzyl)oxy)phenyl)amino)-2,3-dihydro-4H-[1,4]oxazino[2,3-f]quinazolin-4-yl)but-2-en-1-one]
≤ 50 nM	500 to 5000 nM		≤ 50 nM	COc1ccccc1COc1ccc(Nc2ncnc3ccc4c(c23)OCCN4C(=O)/C=C/CN(C)C)cc1 [Example 82, (E)-4-(dimethylamino)-1-(10-((4-((2-methoxybenzyl)oxy)phenyl)amino)-2,3-dihydro-4H-[1,4]oxazino[2,3-f]quinazolin-4-yl)but-2-en-1-one]
≤ 50 nM	500 to 5000 nM		≤ 50 nM	CN(C)C/C=C/C(=O)N1CCOc2c1ccc1ncnc(Nc3ccc(OCc4ccccc4F)cc3)c21 [Example 79, (E)-4-(dimethylamino)-1-(10-((4-((2-fluorobenzyl)oxy)phenyl)amino)-2,3-dihydro-4H-[1,4]oxazino[2,3-f]quinazolin-4-yl)but-2-en-1-one]
≤ 50 nM	50 to 500 nM		≤ 50 nM	COCCN(C)C/C=C/C(=O)N1CCOc2c1ccc1ncnc(Nc3ccc(OCc4ccccn4)c(Cl)c3)c21 [Example 119, (E)-1-(10-((3-chloro-4-(pyridin-2-ylmethoxy)phenyl)amino)-2,3-dihydro-4H-[1,4]oxazino[2,3-f]quinazolin-4-yl)-4-((2-methoxyethyl)(methyl)amino)but-2-en-1-one]
≤ 50 nM	50 to 500 nM		≤ 50 nM	CC(C)NC/C=C/C(=O)N1CCOc2c1ccc1ncnc(Nc3ccc(OCc4ccccn4)c(Cl)c3)c21 [Example 102, (E)-1-(10-((3-chloro-4-(pyridin-2-ylmethoxy)phenyl)amino)-2,3-dihydro-4H-[1,4]oxazino[2,3-f]quinazolin-4-yl)-4-(isopropylamino)but-2-en-1-one]
